According to article PMC10385442, “Galactoside-Based Molecule Enhanced Antimicrobial Activity through Acyl Moiety Incorporation: Synthesis and In Silico Exploration for Therapeutic Target” (Pharmaceuticals, 2023):
≈ marks a conversion by molar mass, not a printed value. Where two headings read alike, the source gives them in different places.

Assays:
[1] = system: Aspergillus flavus (ATCC 204304); experiment: Antifungal poisoned food method, mycelial growth; type: cell-based; settings: NI: no inhibition
Description: (§1) The food poisoning method with potato dextrose agar (PDA) as the culture medium was used to test the antifungal action. Twenty milliliters of 45 °C sterilized, melted potato dextrose agar medium (PDA) was placed into sterile 70-mm glass Petri plates. The “poisoned food” method was used to determine how the synthesized MDGP (1) derivatives affected the growth of the fungal mycelium.

[2] = system: Aspergillus niger (ATCC 16404); experiment: Antifungal poisoned food method, mycelial growth; type: cell-based; settings: NI: no inhibition
Description: as §1

[3] = system: E. coli (G − ve) (ATCC 8739); experiment: Disc diffusion antibacterial susceptibility; type: cell-based, Escherichia coli; settings: E. coli (ATCC 8739), triplicate, NI = No inhibition
Text: (§2) The methodology employed to determine the antibacterial properties of the synthesized compounds (each compound dissolved in dimethyl sulfoxide 7% DMSO) involved the use of the disc diffusion approach. This was done following a previously described method with slight modifications. First, an inoculum was obtained from a bacterial colony and diluted to a concentration of 0.5 McFarland standard in sterile saltwater containing 0.9% NaCl. The suspension was then transferred to a sterile tube and allowed to settle for 5 min, after which the top homogeneous solution was transferred to another sterile tube. The concentration of the solution was adjusted to a 0.5 McFarland turbidity standard to obtain an inoculum of approximately 10^6 CFU/mL.

[4] = system: S. aureus (G + ve) (BTCC 19); experiment: Disc diffusion antibacterial susceptibility; type: cell-based; settings: for Diameter of Inhibition Zones: S. aureus (BTCC 19), triplicate, NI = No inhibition
Text: as §2

[5] = system: P. aeruginosa (G − ve) (ATCC 9027); experiment: Disc diffusion antibacterial susceptibility; type: cell-based; settings: for Diameter of Inhibition Zones: P. aeruginosa (ATCC 9027), triplicate, NI = No inhibition; for antibacterial activity category: P. aeruginosa, category by zone
Text: as §2

[6] = system: B. subtilis (G + ve) (ATCC 6633); experiment: Disc diffusion antibacterial susceptibility; type: cell-based, Bacillus subtilis; settings: B. subtilis (ATCC 6633), triplicate, NI = No inhibition
Text: as §2

[7] = system: S. typhi (G − ve) (AE 14612); experiment: Disc diffusion antibacterial susceptibility; type: cell-based, Salmonella typhi; settings: S. typhi (AE 14612), triplicate, NI = No inhibition
Text: as §2

E. coli (ATCC 8739) = experiment: MIC and MBC by broth dilution; type: cell-based, Escherichia coli; settings: for MBC: eradicates 99.9% of inoculum
Description: (§3) To determine the minimum inhibitory concentration (MIC) of the synthesized compounds against the tested bacterial strains, a dilution method was employed. The objective was to establish the lowest concentration of the compound at which approximately 90% of bacterial growth was inhibited. To this end, a bacterial suspension of 300 μL at a concentration of 0.5 McFarland standard was seeded into individual tubes of 9 mL nutrient broth, with each tube receiving 1 mL of different concentrations of the synthesized compound at twofold serial dilutions and 7% DMSO, which served as the negative control. The tubes were then kept at 37 °C for a whole night. The MIC and MBC values were determined by using the naked eye to compare the turbidity of the tube to that of a reference medium with a 0.5 McFarland value.

[8] = system: P. aeruginosa (ATCC 9027); experiment: MIC and MBC by broth dilution; type: cell-based
Description: as §3

B. cereus (BTCC 19) = experiment: MIC and MBC by broth dilution; type: cell-based; settings: for MBC: eradicates 99.9% of inoculum
Description: as §3

S. typhi (AE 14612) = experiment: MIC and MBC by broth dilution; type: cell-based, Salmonella typhi
Description: as §3

B. subtilis (ATCC 6633) = experiment: MIC and MBC by broth dilution; type: cell-based, Bacillus subtilis
Description: as §3

[9] = Escherichia coli, ATCC8739, E. coli, read-out: MBC
[10] = Escherichia coli, ATCC8739, E. coli, read-out: MIC
[11] = Pseudomonas aeruginosa, ATCC9027, eradicates 99.9% of inoculum, read-out: MBC
[12] = Pseudomonas aeruginosa, ATCC9027, read-out: MIC
[13] = S. typhi, eradicates 99.9% of inoculum
[14] = Bacillus subtilis, ATCC6633, eradicates 99.9% of inoculum, read-out: MBC
[15] = Bacillus subtilis, ATCC6633, read-out: MIC

C[C@@H]1[C@H](O)[C@@H](C)/C=C/C=C/CC/C=C/C=C/C=C/C=C/C(O[C@H]2O[C@H](C)[C@@H](O)[C@H](N)[C@@H]2O)CC2O[C@](O)(CC(O)C(O)CCC(O)CC(O)CC(O)CC(=O)O[C@H]1C)CC(O)C2C(=O)O (stereo partly drawn) [Nystatin, reference compound]
% Inhibition of Fungal Mycelial Growth [1]: ** 65.2 ± 1.2% | % Inhibition of Fungal Mycelial Growth [2]: ** 66.7 ± 1.1%

CC[C@H]1OC(=O)[C@H](C)[C@@H](O[C@H]2C[C@@](C)(OC)[C@@H](O)[C@H](C)O2)[C@H](C)[C@@H](O[C@@H]2O[C@H](C)C[C@H](N(C)C)[C@H]2O)[C@](C)(O)C[C@@H](C)CN(C)[C@H](C)[C@@H](O)[C@]1(C)O [Azithromycin, reference compound]
Diameter of Inhibition Zones [3]: ** 17.25 ± 0.2 mm | Diameter of Inhibition Zones [4]: ** 17.50 ± 0.2 mm | Diameter of Inhibition Zones [5]: ** 18.5 ± 0.3 mm | Diameter of Inhibition Zones [6]: ** 18.25 ± 0.2 mm | Diameter of Inhibition Zones [7]: ** 18.0 ± 0.1 mm

CO[C@@H]1O[C@H](COC(=O)c2ccccc2Br)[C@H](OC(=O)c2ccc(C(C)(C)C)cc2)[C@H](OC(=O)c2ccc(C(C)(C)C)cc2)[C@H]1OC(=O)c1ccc(C(C)(C)C)cc1 [Compound 7, Methyl 6-O-(2-bromobenzoyl)-2,3,4-tri-O-(4-t-butylbenzoyl)-β-D-galactopyranoside]
Diameter of Inhibition Zones [3]: 8.50 ± 0.1 mm | Diameter of Inhibition Zones [5]: 7.50 ± 0.3 mm | Diameter of Inhibition Zones [6]: 7.75 ± 0.1 mm | Diameter of Inhibition Zones [7]: 9.00 ± 0.3 mm

CO[C@@H]1O[C@H](COC(=O)c2ccccc2Br)[C@H](OC(=O)c2cccc(Cl)c2)[C@H](OC(=O)c2cccc(Cl)c2)[C@H]1OC(=O)c1cccc(Cl)c1 [Compound 5, Methyl 6-O-(2-bromobenzoyl)-2,3,4-tri-O-(3-chlorobenzoyl)-β-D-galactopyranoside]
Diameter of Inhibition Zones [5]: * 18.25 ± 0.3 mm | antibacterial activity category [5]: high activity (high activity at 15 mm or more) | % Inhibition of Fungal Mycelial Growth [1]: * 81.97 ± 1.0% | % Inhibition of Fungal Mycelial Growth [2]: 48.73 ± 1.1%

CCCCCCCCCCCC(=O)O[C@H]1[C@@H](OC(=O)CCCCCCCCCCC)[C@@H](COC(=O)c2ccccc2Br)O[C@@H](OC)[C@@H]1OC(=O)CCCCCCCCCCC [Compound 3, Methyl 6-O-(2-bromobenzoyl)-2,3,4-tri-O-lauroyl-β-D-galactopyranoside]
MIC (E. coli (ATCC 8739); E. coli): 2000 µg/mL (≈ 2.16 mM) | MBC (E. coli (ATCC 8739); E. coli): 16000 µg/mL (≈ 17.3 mM) | MBC (E. coli (ATCC 8739); [9]): 16000 µg/mL (≈ 17.3 mM) | MIC (E. coli (ATCC 8739); [10]): 2000 µg/mL (≈ 2.16 mM) | MBC [8, 11]: 16000 µg/mL (≈ 17.3 mM) | MIC [8, 12]: 250 µg/mL (≈ 0.271 mM) | MBC ([8]; eradicates 99.9% of inoculum): 16000 µg/mL (≈ 17.3 mM) | MIC (B. cereus (BTCC 19)): 8000 µg/mL (≈ 8.66 mM) | MBC (B. cereus (BTCC 19); Bacillus cereus, read-out: MBC): 8000 µg/mL (≈ 8.66 mM) | MIC (B. cereus (BTCC 19); Bacillus cereus, read-out: MIC): 8000 µg/mL (≈ 8.66 mM) | MBC (B. cereus (BTCC 19)): 8000 µg/mL (≈ 8.66 mM) | MBC (S. typhi (AE 14612); [13]): 8000 µg/mL (≈ 8.66 mM) | MBC (S. typhi (AE 14612); Salmonella enterica, TYPHI): 8000 µg/mL (≈ 8.66 mM) | MIC (S. typhi (AE 14612); Salmonella enterica, TYPHI): 125 µg/mL (≈ 0.135 mM) | Diameter of Inhibition Zones [3]: 11.00 ± 0.2 mm | Diameter of Inhibition Zones [4]: * 15.50 ± 0.3 mm | antibacterial activity category ([4]; category by zone): high activity (high activity at 15 mm or more) | Diameter of Inhibition Zones [5]: 11.25 ± 0.3 mm | MIC (B. subtilis (ATCC 6633)): 8000 µg/mL (≈ 8.66 mM) | MBC (B. subtilis (ATCC 6633); [14]): 16000 µg/mL (≈ 17.3 mM) | MIC (B. subtilis (ATCC 6633); [15]): 8000 µg/mL (≈ 8.66 mM) | MBC (B. subtilis (ATCC 6633); eradicates 99.9% of inoculum): 16000 µg/mL (≈ 17.3 mM) | Diameter of Inhibition Zones [6]: * 13.00 ± 0.1 mm | % Inhibition of Fungal Mycelial Growth [1]: * 84.02 ± 1.3% | % Inhibition of Fungal Mycelial Growth [2]: * 64.83 ± 1.1% | Diameter of Inhibition Zones [7]: * 12.25 ± 0.1 mm

CO[C@@H]1O[C@H](COC(=O)c2ccccc2Br)[C@H](O)[C@H](O)[C@H]1O [Compound 2, Methyl 6-O-(2-bromobenzoyl)-β-D-galactopyranoside]
Diameter of Inhibition Zones [4]: 10.50 ± 0.2 mm | Diameter of Inhibition Zones [5]: * 15.00 ± 0.1 mm | antibacterial activity category [5]: high activity (high activity at 15 mm or more) | % Inhibition of Fungal Mycelial Growth [1]: * 85.66 ± 0.9% | % Inhibition of Fungal Mycelial Growth [2]: * 72.88 ± 1.0% | Diameter of Inhibition Zones [7]: 11.25 ± 0.2 mm

CO[C@@H]1O[C@H](COC(=O)c2ccccc2Br)[C@H](OC(=O)c2ccc(Cl)cc2)[C@H](OC(=O)c2ccc(Cl)cc2)[C@H]1OC(=O)c1ccc(Cl)cc1 [Compound 6, Methyl 6-O-(2-bromobenzoyl)-2,3,4-tri-O-(4-chlorobenzoyl)-β-D-galactopyranoside]
MIC (E. coli (ATCC 8739); E. coli): 1000 µg/mL (≈ 1.26 mM) | MBC (E. coli (ATCC 8739); E. coli): 8000 µg/mL (≈ 10.1 mM) | MBC (E. coli (ATCC 8739); [9]): 16000 µg/mL (≈ 20.2 mM) | MIC (E. coli (ATCC 8739); [10]): 1000 µg/mL (≈ 1.26 mM) | MIC [8]: 8000 µg/mL (≈ 10.1 mM) | MBC [8, 11]: 16000 µg/mL (≈ 20.2 mM) | MIC [8, 12]: 8000 µg/mL (≈ 10.1 mM) | MBC ([8]; eradicates 99.9% of inoculum): 16000 µg/mL (≈ 20.2 mM) | MIC (B. cereus (BTCC 19)): 2000 µg/mL (≈ 2.52 mM) | MBC (B. cereus (BTCC 19); Bacillus cereus, read-out: MBC): 8000 µg/mL (≈ 10.1 mM) | MIC (B. cereus (BTCC 19); Bacillus cereus, read-out: MIC): 2000 µg/mL (≈ 2.52 mM) | MBC (B. cereus (BTCC 19)): 8000 µg/mL (≈ 10.1 mM) | MIC (S. typhi (AE 14612); S. typhi): 2000 µg/mL (≈ 2.52 mM) | MBC (S. typhi (AE 14612); [13]): 8000 µg/mL (≈ 10.1 mM) | MBC (S. typhi (AE 14612); Salmonella enterica, TYPHI): 8000 µg/mL (≈ 10.1 mM) | MIC (S. typhi (AE 14612); Salmonella enterica, TYPHI): 2000 µg/mL (≈ 2.52 mM) | Diameter of Inhibition Zones [3]: 11.25 ± 0.2 mm | Diameter of Inhibition Zones [4]: 11.50 ± 0.3 mm | Diameter of Inhibition Zones [5]: 11.50 ± 0.1 mm | MIC (B. subtilis (ATCC 6633)): 500 µg/mL (≈ 0.631 mM) | MBC (B. subtilis (ATCC 6633); [14]): 16000 µg/mL (≈ 20.2 mM) | MIC (B. subtilis (ATCC 6633); [15]): 500 µg/mL (≈ 0.631 mM) | MBC (B. subtilis (ATCC 6633); eradicates 99.9% of inoculum): 16000 µg/mL (≈ 20.2 mM) | Diameter of Inhibition Zones [6]: * 12.75 ± 0.1 mm | % Inhibition of Fungal Mycelial Growth [1]: * 81.97 ± 1.2% | % Inhibition of Fungal Mycelial Growth [2]: * 78.81 ± 1.0% | Diameter of Inhibition Zones [7]: * 13.00 ± 0.3 mm

CCCCCCCCCCCCCC(=O)O[C@H]1[C@@H](OC(=O)CCCCCCCCCCCCC)[C@@H](COC(=O)c2ccccc2Br)O[C@@H](OC)[C@@H]1OC(=O)CCCCCCCCCCCCC [Compound 4, Methyl 6-O-(2-bromobenzoyl)-2,3,4-tri-O-myristoyl-β-D-galactopyranoside]
% Inhibition of Fungal Mycelial Growth [2]: * 71.19 ± 1.0%
